Measurements taken from patent US20070128139A1, “Hair treatment compositions comprising hydroxy comopounds” (priority 2002, published 2007).

Assay: cuticle abrasion test (hair washed with shampoo test composition, blended, cuticle recovered and weighed)
Conditions: freeze-dried cuticle weighed back after abrasion; 0.03M compound in base shampoo; 4 g hair washed twice in 0.4 g test composition; lower = less cuticle loss
Procedure: A base shampoo composition was prepared, comprising 12 wt % sodium lauryl ether sulphate (2EO), […] cocoamidopropyl betaine and 86 wt. % water.
To this base solution 0.03M of the following compounds was added:
The compositions were tested in a cuticle abrasion test. Root end hair (as received form the supplier) was pre-cleaned by washing for 1 minute in Composition I followed by copious rinsing in double deionised water. The hair was left to dry naturally over 24 hrs.
For each test, 4 g of hair was washed in 0.4 g of the test composition for 30 seconds, rinsed for 30 seconds, and the washing/rinsing cycle repeated. The hair was left to dry naturally overnight.
The hair was cut into 1 cm lengths, placed in a blender bucket and 200 ml of double de-ionized water was added. The blender was placed on full power for 1 minute. The liquor was decanted off and transferred to a 50 ml centrifuge tube and centrifuged for 10 minutes at 4,300 RPM. The resulting clear liquor was decanted off leaving the cuticle sediment at the bottom of the tube.
The cuticle was transferred from the tube into a beaker with 3×5 ml washes and passed through a series of sieves (425 and 53 microns). The sieves were washed with a further 2×10 ml of water to ensure complete recovery of the cuticle. The sample was made up to 50 ml in a centrifuge tube, centrifuged for 15 minutes and the liquor decanted off. The cuticle was transferred with double deionised water (2×10 ml washes) to a beaker and freeze-dried.
The freeze-dried cuticle was weighed back to determine percentage recovery.

Point of comparison: CCCCCC(C)(C)O [Example 2, 2-methyl-2-heptanol], “% recovery” value 0.54%. Against it:
- CCC(C)(O)CCCC(C)C (stereo not drawn) [B, 3,7-dimethyl-3-octanol, reference compound] — higher, 0.84%
- CC(C)CC(C)O (stereo not drawn) [C, 4-methyl-2-pentanol, reference compound] — higher, 0.79%
- CCCCC(C)(C)O [Example 1, 2-methyl-2-hexanol] — lower, 0.53%
- CCCCC(O)C(C)C (stereo not drawn) [Example 3, 2-methyl-3-heptanol] — higher, 0.55%
- CCCC(C)(C)O [Example 4, 2-methyl-2-pentanol] — higher, 0.58%
- CCC(C)C(C)O (stereo not drawn) [Example 6, 3-methyl-2-pentanol] — higher, 0.62%
- CCCC(C)CO (stereo not drawn) [Example 7, 2-methyl-1-pentanol] — higher, 0.64%
- CCCC(C)(O)CC(C)C (stereo not drawn) [Example A, 2,4-dimethyl-4-heptanol, reference compound] — higher, 0.84%
